Reference: patent publication US20160102058A1, “FLUORO-PERHEXILINE COMPOUNDS AND THEIR THERAPEUTIC USE” (THE UNIVERSITY COURT OF THE UNIVERSITY OF ABERDEEN, priority 2013, published 2016)
Like-named read-outs stand apart in the source and are kept apart here.

Columns and labels:
[1] = Mouse oral pharmacokinetics, plasma and myocardium; type: in vivo, male BALB/c mice; details: for AUC(0-t) / Cmax: male, BALB/c, 10 mg/kg oral gavage
Procedure: (§1) Absorption, distribution and metabolic stability were studied using an in vivo pharmacokinetics assay. Drug levels were assessed using LC/MS-MS.
(§2) Healthy male BALB/c mice (8-12 weeks old) weighing between 25 and 35 g, or Sprague-Dawley rats weighing between 250 and 300 g were procured from In-vivo Bioscience Bangalore, India. Three mice were housed in each cage. Temperature and humidity were maintained at 22±3° C. and 40-70%, respectively and illumination was controlled to give a sequence of 12 h light and 12 h dark cycle. Temperature and humidity were recorded by auto-controlled data logger system. All of the animals were provided laboratory rodent diet (Vetcare India Pvt. Ltd, Bengaluru) after the drug administration. Reverse osmosis water treated with ultraviolet light was provided ad libitum.
FPER-001 and perhexiline samples were freshly prepared each day before administration. The weighed quantity (11.19 mg) of FPER-001 for p.o. dosing was added into a mortar. […] The formulation was sonicated for 2 min to obtain a homogenous suspension. Thirty mice were administered with the oral formulation at 10 mg/kg dose through oral gavage using a 22-G oral feeding needle. The dosing volume administered was 10 mL/kg.
(§3) Blood samples (approximately 60 μL) were collected from retro-orbital plexus of three mice at each time point (1, 4, 8, 24, 48, 72, 96, 120, 144, and 168 h) or of three rats at each time point (0.25, 0.5, 1, 2, 4, 8, 24, 25, 48, 72 and 73 h). Samples were collected into labeled micro-tubes, containing K2EDTA solution (20% K2EDTA solution) as an anticoagulant. Plasma was immediately harvested from the blood by centrifugation at 4000 rpm for 10 min at 4±2° C. and stored below −70° C. until bioanalysis. Immediately after collection of blood, myocardium samples were collected from each mouse at 1, 4, 8, 24, 48, 72, 96, 120, 144 and 168 h, or from each rat at 1, 8, 25 and 73 h. Myocardium samples were homogenized using ice-cold phosphate buffer saline (pH 7.4) and homogenates were stored below −70° C. until analysis. Total homogenate volume was five times the myocardium weight in mice, and three times the myocardium weight in rats.
(§4) The extraction procedures for plasma/myocardium samples and the spiked plasma calibration standards/quality control samples were identical.
(§5) A 25 μL of study sample or spiked calibration standard was added to individual pre-labeled micro-centrifuge tubes followed by 100 μL of internal standard prepared in acetonitrile (Glipizide 500 ng/mL) was added except for the blank, where 100 μL of acetonitrile was added. Samples were vortexed for 5 min. Samples were centrifuged for 10 min at a speed of 4000 rpm at 4° C. Following centrifugation, 100 μL of clear supernatant was transferred in 96-well plates and analysed using LC-MS/MS.
(§6) HPLC and MS conditions were as follows:
(§7) Non-Compartmental-Analysis tool of Phoenix WinNonlin® (Version 6.3) was used to assess the pharmacokinetic parameters. Peak plasma concentrations (Cmax) and time for the peak plasma concentrations (Tmax) were the observed values. The areas under the concentration time curve (AUClast and AUCinf) were calculated by linear trapezoidal rule. The terminal elimination rate constant (ke) was determined by regression analysis of the linear terminal portion of the log plasma concentration-time curve.
The oral absorption, distribution, and stability of FPER-001 and perhexiline were compared in the mouse model as described above. Maximum concentration (Cmax) and area under the curve (AUC) were investigated for both plasma and myocardia in male BALB/c mice, following 10 mg/kg oral gavage of FPER-001 or perhexiline, using an LC/MS/MS detection system as described above.

[2] = Rat oral pharmacokinetics, plasma and myocardium; type: in vivo, male Sprague-Dawley rats; details: for concentration at 1 h / concentration at 8 h: male, Sprague-Dawley, 10 mg/kg oral
Procedure: as §1, §2
FPER-001 and perhexiline samples were freshly prepared each day before administration. The weighed quantity (36.5 mg) of FPER-001 for p.o. dosing was added into a mortar. […] The formulation was sonicated for 2 min to obtain a homogenous suspension.
as §3, §4, §5, §6, §7
The oral absorption, distribution, and stability of FPER-001 and perhexiline were compared in the rat model as described above. Concentration was investigated for both plasma and myocardia in male Sprague-Dawley rats using an LC/MS/MS detection system as described above.

[3] = test system: hepatocytes; details: cited from earlier work
[4] = in comparison with nitroglycerin; cited from earlier work
[5] = EM versus PM; cited from earlier work
[6] = molecular target: T1, CPT-1 (Rattus norvegicus, UniProt Q63704); details: rat cardiac mitochondria; cited from earlier work
T1 construct: host or cells: rat cardiac mitochondria
T1 sequence (Q63704 1-772): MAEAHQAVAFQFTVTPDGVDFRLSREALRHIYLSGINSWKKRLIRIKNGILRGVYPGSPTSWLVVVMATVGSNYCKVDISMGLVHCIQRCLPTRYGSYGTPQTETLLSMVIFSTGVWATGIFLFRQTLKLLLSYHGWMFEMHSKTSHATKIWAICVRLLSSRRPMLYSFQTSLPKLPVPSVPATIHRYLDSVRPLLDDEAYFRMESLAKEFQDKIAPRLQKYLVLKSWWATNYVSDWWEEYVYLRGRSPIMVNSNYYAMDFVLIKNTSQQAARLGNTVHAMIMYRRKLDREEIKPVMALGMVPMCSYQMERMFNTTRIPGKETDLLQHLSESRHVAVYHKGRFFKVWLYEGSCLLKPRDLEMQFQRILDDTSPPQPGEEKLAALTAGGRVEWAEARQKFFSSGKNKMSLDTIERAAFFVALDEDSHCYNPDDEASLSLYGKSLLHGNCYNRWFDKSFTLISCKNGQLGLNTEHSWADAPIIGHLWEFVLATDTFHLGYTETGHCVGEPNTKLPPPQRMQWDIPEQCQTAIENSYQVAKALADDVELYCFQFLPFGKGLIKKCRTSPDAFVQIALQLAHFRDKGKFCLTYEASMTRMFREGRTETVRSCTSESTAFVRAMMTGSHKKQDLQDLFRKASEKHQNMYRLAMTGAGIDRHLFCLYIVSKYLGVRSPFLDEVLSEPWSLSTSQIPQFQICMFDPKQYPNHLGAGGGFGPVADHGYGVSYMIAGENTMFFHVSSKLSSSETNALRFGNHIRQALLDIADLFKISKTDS

[7] = elderly patients with aortic stenosis unsuitable for valve replacement; cited from earlier work
[8] = test system: CPT-2; details: read-out: inhibition of CPT-2; cited from earlier work
[9] = myocardium, read-out: AUC 0-24, myocardium
[10] = myocardium, read-out: Cmax, myocardium
[11] = plasma, read-out: AUC 0-24, plasma
[12] = myocardium, 1 h, read-out: Conc., myocardium, 1 h
[13] = myocardium, 8 h, read-out: Conc., myocardium, 8 h
[14] = plasma, 1 h, read-out: Conc., plasma, 1 h
[15] = plasma, 8 h, read-out: Conc., plasma, 8 h

Row | SMILES | AUC(0-t) [1, 9] | Cmax [1, 10] | AUC(0-t) [1, 11] | Cmax ([1]; plasma, read-out: Cmax, plasma) | concentration at 1 h [2, 12] | concentration at 8 h [2, 13] | concentration at 1 h [2, 14] | concentration at 8 h [2, 15] | further results
1 | FC1(F)CCC(C(CC2CCCCN2)C2CCCCC2)CC1 (mixture of isomers) [FPER-001, 2-(2-Cyclohexyl-2-(4,4-difluorocyclohexyl)ethyl)piperidine] | 32400 ng·h/mL | 1680 ng/mL | 3730 ng·h/mL | 347 ng/mL | 5910 ng/mL | 1290 ng/mL | 386 ng/mL | 179 ng/mL | drug exposure versus perhexiline, myocardium ([1]; oral dosing, myocardium): ~18 fold; maximum drug concentration versus perhexiline, myocardium ([1]; oral dosing, myocardium): ~2.5 fold; drug exposure versus perhexiline, plasma ([1]; oral dosing, plasma): ~11 fold; maximum drug concentration versus perhexiline, plasma ([1]; oral dosing, plasma): ~3 fold; drug concentration versus perhexiline, myocardium, 1 h ([2]; oral dosing, myocardium, 1 h): ~3 fold; drug concentration versus perhexiline, myocardium, 8 h ([2]; oral dosing, myocardium, 8 h): ~3.5 fold; drug concentration versus perhexiline, plasma, 1 h ([2]; oral dosing, plasma, 1 h): ~4 fold; drug concentration versus perhexiline, plasma, 8 h ([2]; oral dosing, plasma, 8 h): ~6 fold
2 | C1CCC(C(CC2CCCCN2)C2CCCCC2)CC1 (stereo not drawn) [Perhexiline, 2-(2,2-dicyclohexylethyl)piperidine] | 1830 ng·h/mL | 665 ng/mL | 350 ng·h/mL | 116 ng/mL | 1900 ng/mL | 361 ng/mL | 99.9 ng/mL | 31.4 ng/mL | inhibition of fatty acid oxidation in hepatocytes [3]: 22 µM; reduction in the symptoms of angina [4]: greater than 50%; difference in perhexiline clearance and required dosage between EM and PM patients [5]: ~100 fold; IC50 [6]: 77 µM; patients with clear symptomatic improvement [7]: 13 out of 15; IC50 [8]: 79 µM
